Experimental data as given in patent US11351165B2, “Agent that increases the expression of the opioid kappa 1 for the treatment of cancer” (LDN Pharma Limited, priority 2017, dated 2022).

Legend:
Type in all cases: cell-based
[1] = test system: OPRK1; assay: Level of expression of OPRK1 by immunoblotting in HCT116 cells; conditions: HCT116 colon cancer cells, 1 nM to 10 μM for 48 h
Method: (§1) In order to determine the effect of 6-β-naltrexol or naltrexone on the level of expression of OPRK1, A549 lung cancer or HCT116 colon cancer cells were seeded onto 6-well plates at a density of 2×10^5 cell/well, and allowed to adhere overnight. Cells were then cultured in the presence of naltrexone or 6-β-naltrexol at concentrations of 1 nM, 10 nM, 100 nM, 1 μM or 10 μM for a further 48 h. Cells were then harvested and processed for measurements of OPRK1, opioid receptor-μ1 (OPRM1) and GAPDH using standard immunoblotting techniques.

[2] = test system: OPRK1; assay: Level of expression of OPRK1 by immunoblotting in A549 cells; conditions: A549 lung cancer cells, 1 nM to 10 μM for 48 h
Method: as §1

[3] = test system: HCT116 cells; assay: Priming with 6-β-naltrexol, then chemotherapy agent; cell number and viability by trypan blue counting, HCT116; conditions: FIG. 2d
Method: (§2) The impact of combining 6-β-naltrexol with other chemotherapy agents was tested by culturing cells according to a treatment schedule that involved two phases of treatment. The first phase involved priming with 10 nM 6-β-naltrexol or 10 μM 6-β-naltrexol for 48 h, before treatment with another drug for a further 48 h. A549 and HCT116 cells were seeded into 6-well plates at a density of 2×10^5 cells/well and left to adhere overnight. Media was removed after 48 h, and cells were rinsed gently with drug-free medium. Fresh culture medium that contained gemcitabine (GEM) or oxaliplatin (OXP) was then added to the cells. The concentrations of the chemotherapy agents used were approximately ¼ IC50, as established previously [Liu W M, Fowler D W, Smith P, Dalgleish A G. Pre-treatment with chemotherapy can enhance the antigenicity and immunogenicity of tumours by promoting adaptive immune responses. Br J Cancer. 2010 Jan. 5; 102(1):115-23. doi: 10.1038/sj.bjc.6605465.]. Cells were then left for a further 48 h before assessment of cell number of viability by cell counting using trypan blue dye as a way of discriminating live and dead cells. Cytostasis was indicated by a reduction in cell number and no associated reduction in cell viability.

[4] = test system: A549 cells; assay: Priming with 6-β-naltrexol, then chemotherapy agent; cell number and viability by trypan blue counting, A549; conditions: FIG. 2c
Method: as §2

[5] = 10 nM or 10 μM 6-β-naltrexol 48 h, then gemcitabine or oxaliplatin at approx. 1/4 IC50 for 48 h
[6] = 10 nM or 10 μM 6-β-naltrexol alone (6BN-0)

Compound | level of expression of OPRK1 [1] | level of expression of OPRK1 [2] | cytotoxic effect of chemotherapeutic agents after priming [3, 5] | cytotoxicity of the agent alone [3, 6] | cytotoxic effect of chemotherapeutic agents after priming [4, 5] | cytotoxicity of the agent alone [4, 6]
Oc1ccc2c3c1OC1[C@H](O)CC[C@@]4(O)[C@@H](C2)N(CC2CC2)CC[C@]314 (stereo partly drawn) [6-β-naltrexol, 17-(Cyclopropylmethyl)-4,5-epoxymorphinan-3,6 beta,14-triol] | increases the level of expression of OPRK1 | increase the level of expression of ORPK1 | cytotoxic effect of both chemotherapeutic agents is increased | absence of any independent increase in cytotoxicity | cytotoxic effect of both chemotherapeutic agents is increased | absence of any independent increase in cytotoxicity
O=C1CC[C@@]2(O)[C@H]3Cc4ccc(O)c5c4[C@@]2(CCN3CC2CC2)[C@H]1O5 [naltrexone, reference compound] | down-regulates the level of expression of OPRK1 | increase the level of expression of ORPK1 |  |  |  | 
